From patent US12617759B2, “Modifier of four-membered ring derivative, preparation method and application thereof” (Shanghai Hansoh Biomedical Co., Ltd., priority 2019, dated 2026)

What was measured:
[1] = Stability in human liver microsome in vitro; type: in vitro ADME; settings: for half-life at 1 μM / microsomal CLint at 1 μM: human liver microsomes, pH 7.4, 1 μM compound, NADPH/UDPGA; for half-life at 1 μM: read-out: Half life (t1/2); for microsomal CLint at 1 μM: read-out: Intrinsic clearance rate (CLint)
Method: (§1) To evaluate the metabolic stability of the compounds of the present invention in liver microsome in vitro.
(§2) Formulation of the working solution of the compound: 2 μL of the stock solution of the compound was added to 998 μL of phosphate buffer, and the final concentration was 20 μM.
(§3) 78.1 μL of 20 mg/mL microsome was diluted to 2.5 mL with 100 mM phosphate buffer and mixed well, and the final concentration was 0.625 mg/mL.
(§4) 33.3 mg of NADPH and 25.8 mg of UDPGA were weighed respectively, followed by the addition of 2 mL of 100 mM phosphate buffer. The final concentrations were 20 mM.
(§5) 1 mg of Alamethicin was weighed, to which 200 μL of DMSO was added to obtain a 5 mg/mL solution. 10 μL of this solution was added to 990 μL of phosphate buffer (pH 7.4), and the final concentration was 50 μg/mL.
(§6) 400 μL of the formulated liver microsome, 25 μL of the working solution of the compound (10 μM) and 25 μL of Alamethicin (50 μg/mL) were added to a 96-well plate successively, which was then pre-incubated at 37° C. for 10 min. 50 μL of the formulated NADPH/UDPGA was added to initiate the reaction, and the plate was incubated at 37° C. The total volume of the reaction system was 500 μL. The final contents of the components are as follows:
(§7) […] The resulting sample was centrifuged at 4000 g for 10 min, and the supernatant was collected for LC-MS/MS analysis.

[2] = Stability in rat liver microsome in vitro; type: in vitro ADME, SD rat; settings: for half-life at 1 μM / microsomal CLint at 1 μM: SD, rat liver microsomes, pH 7.4, 1 μM compound, NADPH/UDPGA; for half-life at 1 μM: read-out: Half life (t1/2); for microsomal CLint at 1 μM: read-out: Intrinsic clearance rate (CLint)
Method: as §1, §2, §3, §4, §5, §6, §7

[3] = Stability in dog liver microsome in vitro; type: in vitro ADME; settings: for half-life at 1 μM / microsomal CLint at 1 μM: dog liver microsomes, pH 7.4, 1 μM compound, NADPH/UDPGA; for half-life at 1 μM: read-out: Half life (t1/2); for microsomal CLint at 1 μM: read-out: Intrinsic clearance rate (CLint)
Method: as §1, §2, §3, §4, §5, §6, §7

Remaining (%, 120 min) [1] [%] | half-life at 1 μM [1] [h] | microsomal CLint at 1 μM [1] [µL/min/mg] | Remaining (%, 120 min) [2] [%] | half-life at 1 μM [2] [h] | microsomal CLint at 1 μM [2] [µL/min/mg] | Remaining (%, 120 min) [3] [%] | half-life at 1 μM [3] [h] | microsomal CLint at 1 μM [3] [µL/min/mg] | SMILES
63.0 | 1.55 | 37.2 | – | – | – | – | – | – | O=C(NC1CC(CCN2CCN(c3cccc(Cl)c3Cl)CC2)C1)C1(O)CC1 (stereo not drawn) [Example 13, N-(3-(2-(4-(2,3-Dichlorophenyl)piperazin-1-yl)ethyl)cyclobutyl)-1-hydroxycyclopropane-1-carboxamide]
34.4 | 1.29 | 18 | 19.1 | 0.878 | 26.3 | 21.4 | 0.835 | 27.7 | CN(C)C(=O)N[C@H]1CC[C@H](CCN2CCN(c3cccc(Cl)c3Cl)CC2)CC1 [Cariprazine, reference compound]
79.5 | 3.16 | 18.3 | – | – | – | – | – | – | CC(C)(O)CC(=O)NC1CC(CCN2CCN(c3cccc(Cl)c3Cl)CC2)C1 (stereo not drawn) [Example 15, N-(3-(2-(4-(2,3-Dichlorophenyl)piperazin-1-yl)ethyl)cyclobutyl)-3-hydroxy-3-methylbutanamide]
42.8 | 1.77 | 13.1 | 25.4 | 1 | 23.1 | 29.2 | 1.18 | 19.6 | O=C(N[C@H]1C[C@H](CCN2CCN(c3cccc(Cl)c3Cl)CC2)C1)c1ncco1 [Example 20A, N-(Trans-3-(2-(4-(2,3-dichlorophenyl)piperazin-1-yl)ethyl)cyclobutyl)oxazole-2-carboxamide]
53.3 | 2.31 | 10 | – | – | – | – | – | – | O=C(N[C@H]1C[C@H](CCN2CCN(c3cccc(Cl)c3Cl)CC2)C1)C1(O)CC1 [Example 13A, N-(Trans-3-(2-(4-(2,3-dichlorophenyl)piperazin-1-yl)ethyl)cyclobutyl)-1-hydroxycyclopropane-1-carboxamide]
61.2 | 1.27 | 45.4 | – | – | – | – | – | – | CN(C)C(=O)NC1CC(CCN2CCN(c3cccc4sccc34)CC2)C1 (stereo not drawn) [Example 6, 3-(3-(2-(4-(Benzo[b]thiophen-4-yl)piperazin-1-yl)ethyl)cyclobutyl)-1,1-dimethylurea]
